Results on 35 compounds are retold here after patent US11008325B2, “Inhibitors of cancer invasion, attachment, and/or metastasis” (VIRGINIA COMMONWEALTH UNIVERSITY, priority 2016, dated 2021).

Read-outs that look alike come from different tables or passages of the source.

Experiment [1] deals with human cancer cell lines. Conditions: cited from earlier work.
Experiment [2] relates to mouse xenograft model. Conditions: in vivo; cited from earlier work.
For experiment [3], the target named is T1, MDA-9 PDZ12 tandem domain (PDZ1) (Homo sapiens, UniProt O00560).
T1 construct: the MDA-9/Syntenin construct used for the screen contains both PDZ domains; made in house
T1 sequence (O00560 110-274): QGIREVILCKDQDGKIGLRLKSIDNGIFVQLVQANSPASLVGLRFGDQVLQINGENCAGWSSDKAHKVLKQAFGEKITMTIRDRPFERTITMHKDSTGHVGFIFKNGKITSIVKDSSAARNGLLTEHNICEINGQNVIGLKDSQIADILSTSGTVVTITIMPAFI
Nature of the experiment: NMR [15N,1H] HSQC chemical shift change and titration binding. As to conditions: for Binding affinity ranking: chemical shift change (DPPM) of backbone amide of residue 147, 50 μM PDZ12, compound at 1:1 molar ratio. The protocol: FIGS. 4A-4E. FIG. 4A. […] FIG. 4B. Superposition of 2D [^15N, ^1H]-HSQC spectra of 50 μM MDA-9 PDZ12 tandem domain in the absence and presence of 350 μM 113B7. FIG. 4C. Binding curve and representative spectra for the titration of 113B7 against MDA-9 PDZ12 tandem domain. Top: Zoom of box region in FIG. 4B after titrating 113B7 into Mda9 PDZ, tandem domain. […] Bottom: Titration curve of 113B7 for residue A147. […] FIG. 4D. […] FIG. 4E. Docked structure of 113B7 in complex with MDA-9 PDZ tandem domain (PDB: 1W9E). The pose was obtained with GOLD. Two PDZ domains of MDA-9 are labeled.
NMR based screening of an house assembled fragment library of about 5,000 compounds using [^15N,^1H] […] The proposed docked structure of PDZ1i in the PDZ1 domain and interdomain of MDA-9/Syntenin is shown in FIGS. 4A-4E and FIG. 5, while the chemical structure of PDZ1i is also shown in FIGS. 4A-4E and FIG. 5.
In all binding assays, the MDA-9/Syntenin construct used for the screen contains both PDZ domains. Constructs uniformly labeled with ^15N and ^13C or ^13C-Met selectively labeled are used for binding, mapping and structural studies. These same proteins are used for ITC binding studies.

A short description of experiment [4]: migration (SAR, Table 4). The experiment is classed as cell-based.
Experiment [5] relates to Dishevelled PDZ/Fz7 Wnt receptor. As to conditions: Xenopus embryos; cited from earlier work.
The mark [6] stands for this setting: NMR titration following backbone amide of residue 147, read-out: Kd values.

Consider `CCCCC(O)C1Nc2cc(C)c(C(=O)O)cc2C1CCc1ccccc1` (stereo not shown), for which the apoptosis result in experiment [1] was “Induction of apoptosis in human cancer cell lines”. The tumor growth entry in experiment [2] is recorded as “tumor growth inhibition in a mouse xenograft model”.

In the case of `Cc1cc(=O)n2nc(COc3ccccc3)nc2[nH]1` [30A9], the dissociation constant (Kd) in experiment [3] (setting [6]) was 197 µM. Also, in experiment [3], the Binding affinity ranking is reported as 4 (4 for DPPM 0.06-0.08).

Take `Cc1cc(=O)n2nc(C(=O)Nc3ccc(O)cc3)nc2[nH]1` [112D11]: the dissociation constant (Kd) in experiment [3] (setting [6]) worked out at 245 µM. Moreover, the Binding affinity ranking in experiment [3] is on record as 2 (2 for DPPM 0.02-0.04).

For `Cc1cc(=O)n2nc(C(=O)Nc3ccc(N)cc3)nc2[nH]1` [112E7], the Kd in experiment [3] (setting [6]) turned out to be 944 µM. Also, the Binding affinity ranking in experiment [3] is 1 (1 for DPPM 0.00-0.02).

Turning to `O=C(Nc1ccc(O)cc1)c1nc2[nH]c3c(c(=O)n2n1)CCC3` [112E12], the Kd in experiment [3] (setting [6]) is 1610 µM. The Binding affinity ranking in experiment [3] is listed as 1 (1 for DPPM 0.00-0.02).

Regarding `Cc1cc(O)n2nc(C(=O)Nc3ccc(O)cc3)nc2n1` [112F1], the Binding affinity ranking in experiment [3] was 1 (1 for DPPM 0.00-0.02).

In the case of `O=C(Nc1ccc(O)c(Cl)c1)c1nc2[nH]c3c(c(=O)n2n1)CCC3` [112F10], the Binding affinity ranking in experiment [3] is listed as 4 (4 for DPPM 0.06-0.08).

As to `O=C(Nc1cc(Cl)c(O)c(Cl)c1)c1nc2[nH]c3c(c(=O)n2n1)CCC3` [112F11], the Binding affinity ranking in experiment [3] is recorded as 5 (5 for DPPM 0.08-0.1).

Consider `O=C(Nc1ccc(O)c(F)c1)c1nc2[nH]c3c(c(=O)n2n1)CCC3` [112F12], for which the Kd in experiment [3] (setting [6]) is 166 µM. The Binding affinity ranking in experiment [3] was 2 (2 for DPPM 0.02-0.04).

As for `Cc1cc(=O)n2nc(C(=O)Nc3cc(Cl)c(O)c(Cl)c3)nc2[nH]1` [112G1], the Kd in experiment [3] (setting [6]) turned out to be 57.3 µM. For the same compound, the Binding affinity ranking in experiment [3] is on record as 6 (6 for DPPM above 0.1).

As for `Cc1cc(=O)n2nc(C(=O)Nc3ccc(O)c(F)c3)nc2[nH]1` [112G2], the Kd in experiment [3] (setting [6]) amounted to 147 µM. Moreover, in experiment [3], the Binding affinity ranking is 4 (4 for DPPM 0.06-0.08).

Consider `O=C(Nc1ccc(O)c(Cl)c1)c1nc2[nH]c3c(c(=O)n2n1)CCC3` [112G3], for which the Kd in experiment [3] (setting [6]) is 119 µM.

For `Cc1cc(=O)n2nc(C(=O)Nc3cc(Cl)c(N)cc3Cl)nc2[nH]1` [112G4], the Kd in experiment [3] (setting [6]) is 34.3 µM; in experiment [3] (fragment hits, FIG. 55B, read-out: Kd) it was ~300 µM. In addition, the Binding affinity ranking in experiment [3] is on record as 6 (6 for DPPM above 0.1).

With `Nc1ccc(NC(=O)c2nc3[nH]c4c(c(=O)n3n2)CCC4)cc1` [112G11], the equilibrium dissociation constant (Kd) in experiment [3] (setting [6]) was determined as 263 µM. Besides, the Binding affinity ranking in experiment [3] was 2 (2 for DPPM 0.02-0.04).

Regarding `Cc1cc(NC(=O)c2nc3[nH]c4c(c(=O)n3n2)CCC4)c(C)cc1NC(=O)CCc1nnc(-c2cccc(C(F)(F)F)c2)o1` [112H9], the equilibrium dissociation constant (Kd) in experiment [3] (setting [6]) was 38.3 µM; in experiment [3] (estimated by NMR titration in 2D HSQC experiments (Table 4), read-out: Kd) it was 38 µM. For the same compound, in experiment [3], the Binding affinity ranking is given as 2 (2 for DPPM 0.02-0.04). The “% migr.” value in experiment [4] worked out at 24%.

In the case of `Cc1c(C)c(NC(=O)c2nc3[nH]c4c(c(=O)n3n2)CCC4)c(C)c(C)c1N` [113B8], in experiment [3] (setting [6]), the Kd stood at 151 µM. Further, the Binding affinity ranking in experiment [3] is listed as 5 (5 for DPPM 0.08-0.1).

Take `Cc1cc(NC(=O)c2nc3[nH]c4c(c(=O)n3n2)CCC4)c(C)cc1NC(=O)Cc1ccc(-c2ccccc2)cc1` [113B9]: in experiment [3], the Binding affinity ranking entry was “N.B”.

On to `Cc1cc(NC(=O)c2nc3[nH]c4c(c(=O)n3n2)CCC4)c(C)cc1NC(=O)CCc1nnc(-c2ccsc2)o1` [113B11], for which, in experiment [3], the Binding affinity ranking is recorded as 3 (3 for DPPM 0.04-0.06).

For the compound `COc1ccc(Br)c(-c2nnc(CCC(=O)Nc3cc(C)c(NC(=O)c4nc5[nH]c6c(c(=O)n5n4)CCC6)cc3C)o2)c1` [113B12], the Binding affinity ranking in experiment [3] is 1 (1 for DPPM 0.00-0.02).

Consider `CC(NC(=O)C(OC(=O)C(C)NC(=O)OC(C)(C)C)C(C)C)C(=O)OC(C(=O)O)C(C)C` (stereo not shown) [NSC-668036], for which the “Wnt3A-induced canonical Wnt signaling” value in experiment [5] is “In Xenopus embryos, NSC-668036 inhibits the canonical Wnt signaling induced by Wnt3A (34)”.

For the compound `Cc1cc(=O)n2nc(NCc3ccccc3)nc2[nH]1` [cmpd1], the Binding affinity ranking in experiment [3] was 2 (2 for DPPM 0.02-0.04).

As for `Cc1cc(=O)n2nc(CCc3ccccc3)nc2[nH]1` [cmpd2], the Binding affinity ranking in experiment [3] was 3 (3 for DPPM 0.04-0.06).

Regarding `O=c1c2c([nH]c3nc(NCc4cccs4)nn13)CCC2` [cmpd3], the Binding affinity ranking in experiment [3] was 1 (1 for DPPM 0.00-0.02).

As for `Cc1cc(=O)n2nc(SCc3ccccc3)nc2[nH]1` [cmpd4], in experiment [3], the Binding affinity ranking was 4 (4 for DPPM 0.06-0.08).

With `Cc1[nH]c2nc(C(=O)NCc3ccccc3)nn2c(=O)c1C` [cmpd5], the Binding affinity ranking in experiment [3] is 2 (2 for DPPM 0.02-0.04).

Turning to `O=c1[nH]c2sc3c(c2c2ncnn12)CCCC3` [cmpd6], the Binding affinity ranking in experiment [3] is listed as 1 (1 for DPPM 0.00-0.02).

Turning to `Cc1cc(=O)n2nc(C(=O)Nc3ccc4c(c3)OCCO4)nc2[nH]1` [cmpd7], the Binding affinity ranking in experiment [3] was 2 (2 for DPPM 0.02-0.04).

Consider `COc1cccc(NC(=O)c2nc3[nH]c(C)cc(=O)n3n2)c1` [cmpd8], for which, in experiment [3], the Binding affinity ranking is given as 3 (3 for DPPM 0.04-0.06).

For the compound `Cc1cc(=O)n2nc(C(=O)Nc3ccc4c(c3)OCO4)nc2[nH]1` [cmpd9], the Binding affinity ranking in experiment [3] was 3 (3 for DPPM 0.04-0.06).

Turning to `Cc1cc(=O)n2nc(C(=O)Nc3cccc(Cl)c3)nc2[nH]1` [cmpd10], in experiment [3] (setting [6]), the dissociation constant (Kd) was 151 µM. In experiment [3], the Binding affinity ranking is 4 (4 for DPPM 0.06-0.08).

Take `O=c1c2c([nH]c3nc(COc4ccccc4)nn13)CCC2` [cmpd11]: the Kd in experiment [3] (setting [6]) came out at 171 µM. For the same compound, the Binding affinity ranking in experiment [3] was 5 (5 for DPPM 0.08-0.1).

For `O=c1c2c([nH]c3nc(CCc4ccccc4)nn13)CCC2` [cmpd13], the Binding affinity ranking in experiment [3] is on record as 3 (3 for DPPM 0.04-0.06).

In the case of `CCCc1cc(=O)n2nc(COc3ccccc3)nc2[nH]1` [cmpd14], in experiment [3], the Binding affinity ranking was 1 (1 for DPPM 0.00-0.02).

In the case of GSKTLQSWRRYH [Fz7 peptide], the “Wnt3A-induced canonical Wnt signaling” value in experiment [5] is “peptide attenuates Wnt3A-induced”.

Take SGKLKLMTTV [Dapper peptide]: in experiment [5], the “Wnt3A-induced canonical Wnt signaling” value was “peptide attenuates Wnt3A-induced”.

For orientation: Kd means the free concentration of one partner at which half of the binding sites on the other are occupied at equilibrium, for simple one-to-one binding.
